Patent publication US12350259B2, “Methods of treating migraine” (Allergan Pharmaceuticals International Limited, priority 2021, dated 2025)
Like-named read-outs stand apart in the source and are kept apart here. Marks after values point to notes of the source that are not given here.

Experiments:
CYP2B6 = assay: CYP induction; assay type: in vitro ADME; details: clinically relevant concentrations
BCRP = BCRP (Homo sapiens, UniProt Q9UNQ0); assay: Transporter substrate; assay type: in vitro ADME
BCRP, sequence (Q9UNQ0 whole entry): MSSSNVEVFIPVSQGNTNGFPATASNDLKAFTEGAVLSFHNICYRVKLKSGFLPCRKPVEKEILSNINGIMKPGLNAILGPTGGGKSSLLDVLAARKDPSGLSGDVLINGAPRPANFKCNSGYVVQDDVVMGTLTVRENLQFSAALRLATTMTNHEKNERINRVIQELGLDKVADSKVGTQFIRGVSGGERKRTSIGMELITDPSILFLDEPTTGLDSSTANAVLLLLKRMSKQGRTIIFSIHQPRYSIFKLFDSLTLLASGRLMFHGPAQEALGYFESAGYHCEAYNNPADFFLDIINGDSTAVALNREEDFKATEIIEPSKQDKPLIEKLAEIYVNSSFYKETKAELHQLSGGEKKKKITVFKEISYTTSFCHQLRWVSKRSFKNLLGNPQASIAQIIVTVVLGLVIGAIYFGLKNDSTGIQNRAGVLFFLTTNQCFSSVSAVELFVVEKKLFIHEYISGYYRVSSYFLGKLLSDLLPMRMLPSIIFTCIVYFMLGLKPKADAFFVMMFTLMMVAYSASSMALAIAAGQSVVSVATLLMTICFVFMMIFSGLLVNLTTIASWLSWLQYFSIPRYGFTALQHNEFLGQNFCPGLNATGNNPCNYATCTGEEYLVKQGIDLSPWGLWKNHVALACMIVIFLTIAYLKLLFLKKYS

[1] = Atogepant-esomeprazole interaction study: safety; assay type: in vivo, human; details: atogepant 60 mg alone or with esomeprazole magnesium 40 mg
Procedure: A phase 1, open-label, 2-intervention, single-sequence, nonrandomized, crossover, drug-drug interaction study was conducted to evaluate the effects of multiple-dose esomeprazole magnesium 40 mg on pharmacokinetics (PK) and safety of co-administered single-dose atogepant 60 mg in healthy adults.

CYP3A4 [2] = assay: CYP induction; assay type: in vitro ADME; details: clinically relevant concentrations
P-gp [3] = target: T1, P-gp (Homo sapiens, UniProt P08183); assay: Transporter inhibition; assay type: in vitro ADME; details: clinically relevant concentrations
T1 sequence (P08183 whole entry): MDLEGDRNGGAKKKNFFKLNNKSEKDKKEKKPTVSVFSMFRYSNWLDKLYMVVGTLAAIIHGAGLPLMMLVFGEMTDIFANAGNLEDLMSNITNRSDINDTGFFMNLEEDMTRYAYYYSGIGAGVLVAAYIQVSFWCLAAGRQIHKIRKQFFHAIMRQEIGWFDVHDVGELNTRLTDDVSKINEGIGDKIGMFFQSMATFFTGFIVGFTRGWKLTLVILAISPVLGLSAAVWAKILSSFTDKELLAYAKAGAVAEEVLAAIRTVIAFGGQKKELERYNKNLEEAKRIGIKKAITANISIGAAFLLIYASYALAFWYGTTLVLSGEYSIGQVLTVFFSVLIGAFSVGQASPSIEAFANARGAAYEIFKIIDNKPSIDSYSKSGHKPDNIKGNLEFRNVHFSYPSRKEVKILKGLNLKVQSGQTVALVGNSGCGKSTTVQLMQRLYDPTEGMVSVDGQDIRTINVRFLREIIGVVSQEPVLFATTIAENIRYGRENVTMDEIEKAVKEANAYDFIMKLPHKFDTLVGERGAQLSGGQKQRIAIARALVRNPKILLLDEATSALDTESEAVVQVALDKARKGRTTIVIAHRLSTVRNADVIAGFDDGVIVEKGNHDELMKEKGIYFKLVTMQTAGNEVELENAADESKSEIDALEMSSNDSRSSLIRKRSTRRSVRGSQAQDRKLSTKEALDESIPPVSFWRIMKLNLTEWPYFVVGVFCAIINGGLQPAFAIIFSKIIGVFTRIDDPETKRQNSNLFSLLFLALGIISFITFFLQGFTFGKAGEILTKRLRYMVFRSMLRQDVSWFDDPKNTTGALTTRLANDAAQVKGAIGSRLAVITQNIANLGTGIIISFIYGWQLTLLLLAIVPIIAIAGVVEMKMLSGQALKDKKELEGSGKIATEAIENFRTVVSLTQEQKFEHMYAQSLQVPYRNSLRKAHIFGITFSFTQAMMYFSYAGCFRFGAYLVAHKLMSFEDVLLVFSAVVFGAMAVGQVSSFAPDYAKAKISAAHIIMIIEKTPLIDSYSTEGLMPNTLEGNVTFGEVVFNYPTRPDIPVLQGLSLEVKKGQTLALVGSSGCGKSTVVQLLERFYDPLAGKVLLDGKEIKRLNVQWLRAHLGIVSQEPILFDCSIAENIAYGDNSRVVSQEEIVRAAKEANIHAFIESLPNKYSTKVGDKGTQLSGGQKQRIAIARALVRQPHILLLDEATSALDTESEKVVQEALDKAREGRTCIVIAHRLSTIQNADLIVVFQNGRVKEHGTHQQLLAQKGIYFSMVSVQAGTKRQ

P-gp [4] = target: T1, P-gp; assay: Transporter substrate; assay type: in vitro ADME
OATP1B1 = OATP1B1 (Homo sapiens, UniProt Q9Y6L6); assay: Transporter substrate; assay type: in vitro ADME
OATP1B1, sequence (Q9Y6L6 whole entry): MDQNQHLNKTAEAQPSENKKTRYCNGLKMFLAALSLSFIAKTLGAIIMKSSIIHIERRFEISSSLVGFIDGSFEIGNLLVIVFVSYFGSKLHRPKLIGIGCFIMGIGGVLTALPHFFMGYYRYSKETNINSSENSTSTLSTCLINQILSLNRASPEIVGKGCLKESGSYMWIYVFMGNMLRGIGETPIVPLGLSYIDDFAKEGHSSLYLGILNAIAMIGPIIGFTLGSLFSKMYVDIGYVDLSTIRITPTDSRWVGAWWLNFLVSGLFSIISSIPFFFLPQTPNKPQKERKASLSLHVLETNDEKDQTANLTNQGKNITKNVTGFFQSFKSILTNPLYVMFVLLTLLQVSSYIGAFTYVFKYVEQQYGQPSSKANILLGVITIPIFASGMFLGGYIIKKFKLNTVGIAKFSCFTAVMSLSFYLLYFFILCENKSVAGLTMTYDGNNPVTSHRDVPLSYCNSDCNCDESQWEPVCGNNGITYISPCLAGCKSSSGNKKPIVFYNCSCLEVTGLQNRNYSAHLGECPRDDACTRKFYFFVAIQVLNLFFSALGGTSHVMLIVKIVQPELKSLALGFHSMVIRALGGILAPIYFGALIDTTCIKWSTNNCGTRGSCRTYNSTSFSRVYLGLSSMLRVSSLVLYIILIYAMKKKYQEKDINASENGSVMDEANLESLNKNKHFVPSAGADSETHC

[5] = Atogepant-topiramate interaction study, cohort 1: atogepant steady-state PK; assay type: in vivo, human; details: for AUC / Cmax / Tmax: both sexes, human, plasma; for Tmax: read-out: Tmax,ss (median)
Procedure: The duration of the study was 25 days (±2 days), which included day −1 through the follow-up visit and excluded the screening period. The screening period was up to 21 days before day 1 and the intervention period was a total of 19 days, at which point the end of dosing visit was conducted. […] Clinical laboratory tests were performed at the follow-up visit, which was conducted on day 24 (7 [±2] days after the last dose of study medication. […] The primary endpoints were area under the plasma concentration-time curve during dosing interval at steady state (AUC0-tau,ss) and maximum plasma drug concentration at steady state (Cmax,ss) of atogepant and topiramate when coadministered and when administered alone. Additional PK parameters included time of maximum plasma drug concentration at steady state (Tmax,ss), average plasma drug concentration at steady state (Cavg,ss), and minimum plasma drug concentration at steady state (Cmin,ss) of topiramate and atogepant when coadministered and when administered alone.

[6] = Atogepant-topiramate interaction study: safety and tolerability; assay type: in vivo, human
CYP1A2 = assay: CYP induction; assay type: in vitro ADME; details: clinically relevant concentrations
OATP1B3 [7] = target: T2, OATP1B3 (Homo sapiens, UniProt Q9NPD5); assay: Transporter substrate; assay type: in vitro ADME
T2 sequence (Q9NPD5 whole entry): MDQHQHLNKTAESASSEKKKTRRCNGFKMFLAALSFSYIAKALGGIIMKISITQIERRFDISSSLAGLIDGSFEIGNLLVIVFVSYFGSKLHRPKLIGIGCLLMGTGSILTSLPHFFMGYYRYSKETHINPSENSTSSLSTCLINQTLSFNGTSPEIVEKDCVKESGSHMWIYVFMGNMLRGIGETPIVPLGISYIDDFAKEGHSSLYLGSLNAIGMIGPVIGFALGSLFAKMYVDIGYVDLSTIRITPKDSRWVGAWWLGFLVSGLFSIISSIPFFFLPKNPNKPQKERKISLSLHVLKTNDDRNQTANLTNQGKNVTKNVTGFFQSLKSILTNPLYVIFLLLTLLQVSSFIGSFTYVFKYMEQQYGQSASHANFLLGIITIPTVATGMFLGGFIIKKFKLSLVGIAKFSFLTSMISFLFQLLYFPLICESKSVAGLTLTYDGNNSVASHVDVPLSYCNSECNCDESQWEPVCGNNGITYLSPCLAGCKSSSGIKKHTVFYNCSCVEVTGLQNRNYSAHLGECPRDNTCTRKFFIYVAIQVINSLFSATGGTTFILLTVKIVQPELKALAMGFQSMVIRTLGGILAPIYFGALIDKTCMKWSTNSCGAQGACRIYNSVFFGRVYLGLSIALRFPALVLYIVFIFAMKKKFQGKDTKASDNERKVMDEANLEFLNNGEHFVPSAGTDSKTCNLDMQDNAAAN

OATP1B3 [8] = target: T2, OATP1B3; assay: Transporter inhibition; assay type: in vitro ADME
CYP2D6 = CYP2D6 (Homo sapiens, UniProt P10635); assay: In vitro CYP inhibition; assay type: in vitro ADME; details: clinically relevant concentrations
CYP2D6, sequence (P10635 whole entry): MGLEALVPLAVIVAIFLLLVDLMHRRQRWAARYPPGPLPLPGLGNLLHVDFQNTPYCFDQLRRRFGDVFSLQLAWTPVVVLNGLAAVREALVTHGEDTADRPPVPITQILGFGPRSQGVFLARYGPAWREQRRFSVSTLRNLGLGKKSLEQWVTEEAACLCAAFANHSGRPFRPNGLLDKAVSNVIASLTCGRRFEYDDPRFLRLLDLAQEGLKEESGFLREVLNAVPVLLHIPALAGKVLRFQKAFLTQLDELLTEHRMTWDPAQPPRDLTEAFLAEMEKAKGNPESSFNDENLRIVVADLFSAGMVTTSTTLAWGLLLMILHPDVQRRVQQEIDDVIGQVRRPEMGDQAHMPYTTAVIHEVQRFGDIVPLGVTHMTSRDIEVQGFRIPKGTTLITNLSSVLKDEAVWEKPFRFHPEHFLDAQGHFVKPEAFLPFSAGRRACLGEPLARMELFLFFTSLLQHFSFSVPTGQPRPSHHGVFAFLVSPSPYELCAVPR

OAT3 = OAT3 (Homo sapiens, UniProt Q8TCC7); assay: Transporter inhibition; assay type: in vitro ADME; details: clinically relevant concentrations
OAT3, sequence (Q8TCC7 whole entry): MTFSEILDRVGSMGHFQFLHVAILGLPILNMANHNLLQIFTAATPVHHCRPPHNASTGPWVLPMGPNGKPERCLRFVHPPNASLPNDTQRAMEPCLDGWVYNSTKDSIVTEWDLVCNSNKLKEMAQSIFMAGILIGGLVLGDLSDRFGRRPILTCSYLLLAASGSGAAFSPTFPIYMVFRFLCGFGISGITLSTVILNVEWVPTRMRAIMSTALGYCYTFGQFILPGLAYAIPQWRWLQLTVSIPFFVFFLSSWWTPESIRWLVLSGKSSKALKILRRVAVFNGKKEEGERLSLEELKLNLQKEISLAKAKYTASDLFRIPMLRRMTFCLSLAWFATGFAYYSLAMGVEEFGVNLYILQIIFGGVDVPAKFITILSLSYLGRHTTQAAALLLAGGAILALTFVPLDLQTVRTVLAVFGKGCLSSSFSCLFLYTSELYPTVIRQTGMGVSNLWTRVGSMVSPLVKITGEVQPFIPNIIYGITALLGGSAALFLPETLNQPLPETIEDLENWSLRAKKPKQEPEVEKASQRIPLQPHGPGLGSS

MATE 1 = MATE 1 (Homo sapiens, UniProt Q96FL8); assay: Transporter inhibition; assay type: in vitro ADME
MATE 1, sequence (Q96FL8 whole entry): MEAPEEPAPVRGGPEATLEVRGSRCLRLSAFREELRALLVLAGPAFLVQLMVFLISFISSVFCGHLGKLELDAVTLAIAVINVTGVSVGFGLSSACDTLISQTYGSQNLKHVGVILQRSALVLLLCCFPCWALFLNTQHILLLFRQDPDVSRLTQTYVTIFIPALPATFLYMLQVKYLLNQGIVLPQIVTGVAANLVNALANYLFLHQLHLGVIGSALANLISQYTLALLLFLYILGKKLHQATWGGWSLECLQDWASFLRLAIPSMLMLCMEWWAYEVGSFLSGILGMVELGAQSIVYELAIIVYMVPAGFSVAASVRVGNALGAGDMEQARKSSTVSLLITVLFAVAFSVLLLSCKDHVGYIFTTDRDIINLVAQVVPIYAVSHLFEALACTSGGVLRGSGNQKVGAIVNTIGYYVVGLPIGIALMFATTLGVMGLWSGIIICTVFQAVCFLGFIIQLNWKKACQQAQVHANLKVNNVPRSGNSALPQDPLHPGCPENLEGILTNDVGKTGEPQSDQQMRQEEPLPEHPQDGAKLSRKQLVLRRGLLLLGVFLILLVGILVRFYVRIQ

CYP3A4 [9] = target: CYP3A4 (Homo sapiens, UniProt P08684); assay: In vitro CYP inhibition; assay type: in vitro ADME; details: clinically relevant concentrations
plasma protein = assay: Plasma protein binding in human plasma; assay type: in vitro ADME; details: range of 0.1 to 10 μM
[10] = Plasma protein binding in human plasma; assay type: in vitro ADME; details: human plasma
[11] = Safety in 12-week placebo-controlled Studies 1 and 2; assay type: in vivo, human
Procedure: The safety of atogepant was evaluated in 1958 patients with migraine who received at least one dose of atogepant. Of these, 839 patients were exposed to atogepant once daily for at least 6 months, and 487 patients were exposed for 12 months. In the 12-week, placebo-controlled clinical studies (Study 1 and Study 2, discussed above in Example 7), 314 patients received at least one dose of atogepant 10 mg once daily, 411 patients received at least one dose of atogepant 30 mg once daily, 417 patients received at least one dose of atogepant 60 mg once daily, and 408 patients received placebo. Approximately 88% were female, 80% were White, 17% were Black, and 12% were of Hispanic or Latino ethnicity. The mean age at study entry was 41 years (range 18 to 74 years).

[12] = Excretion after single oral dose of 14C-atogepant; assay type: in vivo, human; details: single oral dose of 50 mg 14C-atogepant, healthy male subjects
Procedure: The parent compound (atogepant) and a glucuronide conjugate metabolite (M23) were the most prevalent circulating components in human plasma. […] Following a single oral dose of 50 mg ^14C-atogepant to healthy male subjects, 42% and 5% of the dose was recovered as unchanged atogepant in feces and urine, respectively.

[13] = atogepant 60 mg QD + topiramate 100 mg BID, day 17
[14] = atogepant 60 mg QD alone, day 7
[15] = Studies 1 and 2, atogepant 10 mg (N = 314)
[16] = Studies 1 and 2, atogepant 30 mg (N = 411)
[17] = Studies 1 and 2, atogepant 60 mg (N = 417)

C[C@@H]1[C@H](c2c(F)ccc(F)c2F)C[C@H](NC(=O)c2cnc3c(c2)C[C@@]2(C3)C(=O)Nc3ncccc32)C(=O)N1CC(F)(F)F [atogepant, (3′S)-N-[(3S,5S,6R)-6-methyl-2-oxo-1-(2,2,2-trifluoroethyl)-5-(2,3,6-trifluorophenyl)piperidin-3-yl]-2′-oxo-1′,2′,5,7-tetrahydrospiro[cyclopenta[b]pyridine-6,3′-pyrrolo[2,3-b]pyridine]-3-carboxamide]
induction of CYP2B6 (CYP2B6): not an inducer | substrate of BCRP (BCRP): substrate | safety and tolerability [1]: safe and tolerated | induction of CYP3A4 (CYP3A4 [2]): not an inducer | inhibition of P-gp (P-gp [3]): not an inhibitor | substrate of P-gp (P-gp [4]): substrate | substrate of OATP1B1 (OATP1B1): substrate | Cavg,ss [5, 13]: 95.8 ng/mL | Cmin,ss [5, 13]: 6.3 ng/mL | Cavg,ss [5, 14]: 125.6 ng/mL | Cmin,ss [5, 14]: 10.2 ng/mL | AUC ([5]; 60 mg, Atogepant Alone, read-out: AUC0-tau,ss Geometric LSM): 2720 ng·h/mL | Cmax ([5]; 60 mg, Atogepant Alone, read-out: Cmax,ss Geometric LSM): 535 ng/mL | AUC ([5]; 60 mg, atogepant 60 mg QD alone, day 7, read-out: AUC0-tau,ss): 3020 ng·h/mL | Cmax ([5]; 60 mg, atogepant 60 mg QD alone, day 7, read-out: Cmax,ss): 626 ng/mL | AUC ([5]; Atogepant and Topiramate, read-out: AUC0-tau,ss Geometric LSM): 2030 ng·h/mL | Cmax ([5]; Atogepant and Topiramate, read-out: Cmax,ss Geometric LSM): 406 ng/mL | AUC ([5]; atogepant 60 mg QD + topiramate 100 mg BID, day 17, read-out: AUC0-tau,ss): 2300 ng·h/mL | Cmax ([5]; atogepant 60 mg QD + topiramate 100 mg BID, day 17, read-out: Cmax,ss): 491 ng/mL | Tmax [5, 13]: 2 h | Tmax [5, 14]: 2 h | reduction of atogepant AUC0-tau,ss ([5]; coadministered with topiramate): 25% | reduction of atogepant Cmax,ss ([5]; coadministered with topiramate): 24% | Deaths, % ([6]; cohort 1, atogepant + topiramate (n = 26)): (0) % | Deaths, % ([6]; cohort 1, atogepant alone (n = 28)): (0) % | TEAEs leading to discontinuation, % ([6]; human, in vivo): (17.9)^a % | TESAEs, % ([6]; human, in vivo): (0) % | Treatment-related TEAEs, % ([6]; human, in vivo): (39.3) % | Treatment-related TESAEs, % ([6]; human, in vivo): (0) % | constipation reported ([6]; human, in vivo): 3 participants | nausea reported ([6]; human, in vivo): 6 participants | TEAEs, % ([6]; human, in vivo, 7 days): (71.4) % | induction of CYP1A2 (CYP1A2): not an inducer | substrate of OATP1B3 (OATP1B3 [7]): substrate | inhibition of OATP1B3 (OATP1B3 [8]): weak inhibitor | inhibition of CYP2D6 (CYP2D6): not an inhibitor | inhibition of OAT3 (OAT3): not an inhibitor | inhibition of MATE 1 (MATE 1): weak inhibitor | inhibition of CYP3A4 (CYP3A4 [9]): not an inhibitor | concentration dependence of plasma protein binding (plasma protein): not concentration-dependent | fraction unbound [10]: ~0.047 | discontinuation due to constipation ([11]; Studies 1 and 2): 0.5% | discontinuation due to fatigue/somnolence ([11]; Studies 1 and 2): 0.5% | discontinuation due to nausea ([11]; Studies 1 and 2): 0.5% | proportion of patients with a weight decrease of at least 7% at any point ([11]; Studies 1 and 2, atogepant 10 mg): 3.8% | Constipation, incidence [11, 15]: 6% | Decreased Appetite, incidence [11, 15]: 2% | Fatigue/Somnolence, incidence [11, 15]: 4% | Nausea, incidence [11, 15]: 5% | proportion of patients with a weight decrease of at least 7% at any point ([11]; Studies 1 and 2, atogepant 30 mg): 3.2% | Constipation, incidence [11, 16]: 6% | Decreased Appetite, incidence [11, 16]: 1% | Fatigue/Somnolence, incidence [11, 16]: 4% | Nausea, incidence [11, 16]: 6% | proportion of patients with a weight decrease of at least 7% at any point ([11]; Studies 1 and 2, atogepant 60 mg): 4.9% | Constipation, incidence [11, 17]: 6% | Decreased Appetite, incidence [11, 17]: 2% | Fatigue/Somnolence, incidence [11, 17]: 6% | Nausea, incidence [11, 17]: 9% | severe liver injury or jaundice ([11]; Study 1 and Study 2): no cases | rate of transaminase elevations over 3 times the upper limit of normal ([11]; Study 1 and Study 2, patients treated with atogepant): 1.0% | time to resolution of transaminase elevations after discontinuation ([11]; cases temporally associated with atogepant treatment, asymptomatic): ≤ 8 weeks | dose recovered as unchanged atogepant in feces [12]: 42% | dose recovered as unchanged atogepant in urine [12]: 5%
